Earlier results, collected in patent US20100286080A1, “AQUEOUS COMPOSITION COMPRISING CHITOSAN AND AN ACIDIC DRUG” (The Jordanian Pharmaceutical Manufacturing Co., priority 2007, published 2010).

Tests used:
[1] = single 200-mg oral dose, fasting subjects

CC(C)Cc1ccc(C(C)C(=O)O)cc1 (centres unmarked) [Ibuprofen]
Time of peak plasma levels after administration [1]: about 1 hr | Solubility in water: practically insoluble in water
